Where two headings read alike, the source gives them in different places.
Tests used:
Acute toxicity = settings: mouse, in vivo, ip; mice, intraperitoneal; read-out: Toxicity LD 50
Method: Groups of 5-10 female NMRI mice are given the compounds intraperitoneally. The LD 50 is determined as the dose after which 50% of the treated animals die.

[1] = system: methamphetamine-antagonism (sniffing movements); test: Antimethamphetamine action: methamphetamine-induced sniffing movements; assay type: in vivo, rat; settings: for ED50: ip, 0.5 h, rat, intraperitoneal, 30 min before methamphetamine 2.5 mg/kg i.v., read-out: Antimethamphetamine action ED 50%; for Antimethamphetamine action R.A. (relative activity): clozapine = 1.00
Method: Methamphetamine (2.5 mg/kg administered intravenously) regularly causes the following symptoms in rats: motor restlessness, searching and sniffing movements, bristling fur and tremor (Janssen et al., Arzneim.-Forsch./DrugRes. 13 (1963), 205; Randrug et al., Psychopharmacologia 11 (1967), 300). The test substances are administered intraperitoneally, 30 minutes before the methamphetamine. The criterion of whether a compound has an effect is whether the sniffing movements remain absent over 5 minutes' observation after the injection of methamphetamine. That dose is determined as the mean inhibitory dose (ED 50%) by means of Probit analysis which prevents the symptom in half the number of animals. Number of animals examined per dose: 10.

[2] = system: apomorphine-antagonism (mandibular movements); test: Antiapomorphine action: apomorphine-triggered mandibular movements; assay type: in vivo, rat (female Sprague-Dawley); settings: for ED50: 1.5 h, read-out: Antiapomorphine action ED 50%; for Antiapomorphine action R.A. (relative activity): clozapine = 1.00
Method: The test substances are administered orally 90 minutes before the apomorphine.

death from physostigmine = test: Anticholinergic action: protection against physostigmine lethality; assay type: in vivo, mouse (female NMRI); settings: mice, oral, 30 min before physostigmine 0.825 mg/kg s.c.; dose protecting 50% against death
Method: Groups of 10 female NMRI mice are given physostigmine subcutaneously, at a lethal dose (0.825 mg/kg). The test substances are administered orally 30 minutes before the administration of physostigmine.
The ED 50% is determined as the dose of compound which protects 50% of the animals against death from physostigmine.

[3] = system: orientation hypermotility; test: Sedative action: orientation hypermotility in mice; assay type: in vivo, mouse (female NMRI); settings: for ED50: Mus musculus, 0.5 h, mice, oral, 30 min after administration, 50% decrease in orientation hypermotility vs placebo, read-out: Sedation ED 50%; for Sedation R.A. (relative activity): clozapine = 1.0
Method: 4-8 groups of 3 female NMRI mice are given the compound orally. The orientation hypermotility induced by a new environment is determined photoelectrically, 30 minutes after administration of the compound, for a period of 30 minutes. The ED50 is the dose which produces a decrease in orientation hypermotility by 50%, compared to control animals treated with placebo.

[4] = system: tonic extensor reflex on the rabbit gastrocnemius; test: Muscle-relaxing action: tonic extensor reflex; assay type: in vivo; settings: for ED50: Oryctolagus cuniculus, rabbit, intravenous, dose reducing muscle activity to half, read-out: Muscle relaxation ED 50%; for Muscle relaxation R.A. (relative activity): clozapine = 1.0
Text: The measurement is based on quantifying the tonic extensor reflex on the rabbit gastrocnemius (Teschendorf et al., Arch. Pharmacol. exp. Path. 266 (1970), 462). The rabbit is fixed in a special apparatus which permits bending the paw at the talocalcanean joint in a defined and reproducible manner. As a result of this bending, a tonic extensor reflex is triggered in the […]. The electrical activity of the muscle during contraction is registered and the individual pulses are counted. The extension (duration 5 s) is repeated at intervals of one minute. After a constant number of pulses has been reached (constituting the control value), the test compound is administered intravenously. The number of pulses after administration is related to the previous value. For each dose investigated, 4-6 animals are used. The ED 50% is the dose which reduces the muscle activity to half, based on the initial value.

[5] = rat, oral, 90 min before apomorphine 1.5 mg/kg s.c.

SMILES | LD50 (Acute toxicity) [mg/kg] | ED50 [1] [mg/kg] | Antimethamphetamine action R.A. (relative activity) [1] | ED50 [2, 5] [mg/kg] | Antiapomorphine action R.A. (relative activity) [2] | ED50 protecting against physostigmine lethality (death from physostigmine) | ED50 [3] [mg/kg] | Sedation R.A. (relative activity) [3] | ED50 ([2]; Rattus norvegicus, po) [mg/kg] | ED50 [4] [mg/kg] | Muscle relaxation R.A. (relative activity) [4] | muscle-relaxing action compared with comparative substances ([4]; in words, vs clozapine and perlapine)
C[N+]1([O-])CCN(C2Cc3ccccc3C(=CC#N)c3ccccc32)CC1 (mixture of isomers) [Example 8, cis, trans-5-Cyanomethylene-10-(4-methyl-4-oxy-piperazin-1-yl)-10,11-dihydro-dibenzo[a,d]-cycloheptene. 1/2 H2 O] | > 100 | 39 | 0.95 | 7 | 1.14 | > 100 | 15.2 | 0.31 | – | – | – | –
N#CC=C1c2ccccc2CC(N2CCN(CCO)CC2)c2ccccc21 (mixture of isomers) [Example 7, cis,trans-5-Cyanomethylene-10-(N-β-hydroxyethyl-piperazin-1-yl)-10,11-dihydro-dibenzo[a,d]-cycloheptene. 1/2 H2 O] | > 100 | 30 | 1.23 | – | – | > 100 | 10 | 0.47 | – | – | – | –
CN1CCN(C2=Nc3ccccc3Cc3ccccc32)CC1 [Perlapine, perlapine, reference compound] | – | 31 | 1.19 | – | 0.37 | – | 2.01 | 2.36 | 21.5 | 0.1 | 0.46 | –
CN1CCN(C2Cc3ccccc3C(=CC#N)c3ccccc32)CC1 (mixture of isomers) [Example 1, cis,trans-5-Cyanomethylene-10-(4-methyl-piperazin-1-yl)-10,11-dihydro-dibenzo[a,d]-cycloheptene. 1/2 H2 O] | > 100 | 5.4 | 6.85 | – | – | > 46.4 | 5.6 | 0.85 | – | 0.1 | 0.46 | –
CCN1CCN(C2Cc3ccccc3C(=CC#N)c3ccccc32)CC1 (mixture of isomers) [Example 5, cis,trans-5-Cyanomethylene-10-(4-ethyl-piperazin-1-yl)-10,11-dihydro-dibenzo[a,d]-cycloheptene. 1/2 H2 O] | > 100 | 13 | 2.85 | – | – | > 46.4 | 6.7 | 0.71 | – | 0.1 | 0.46 | –
CN1CCN(C2Cc3cc(Cl)ccc3C(=CC#N)c3ccccc32)CC1 (mixture of isomers) [Example 4, cis,trans-2-Chloro-5-cyanomethylene-10-(4-methylpiperazin-1-yl)-10,11-dihydro-dibenzo[a,d]-cycloheptene] | – | 4.6 | 8.04 | – | – | – | 5.5 | 0.86 | – | 0.02 | 2.30 | markedly surpasses those of the comparative substances
CN1CCN(C2=Nc3cc(Cl)ccc3Nc3ccccc32)CC1 [Clozapine, clozapine, reference compound] | – | 37 | 1.00 | 8 | 1.00 | – | – | 1.0 | – | 0.046 | 1.0 | –

From patent US4376773A, “10-Substituted 5-cyanomethylene-10,11-dihydro-dibenzo-[a,d]-cycloheptenes, their preparation, and therapeutic agents containing these compounds” (BASF Aktiengesellschaft, priority 1980, dated 1983)
